Measurements: patent US10688093B2, “Methods, compositions, and uses of novel Fyn kinase inhibitors” (priority 2015, dated 2020)

Target: full-length recombinant human FYN A (Homo sapiens (Human), UniProt P06241)
Experiment: ADP-Glo Kinase Assay of FYN kinase inhibition
Type: biochemical
Conditions: primary screen, initial compounds
Summary of the method: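 ADP-Glo read-out of peptide phosphorylation after 90 min RT with 12.5 pmol ATP and 100 pg 12-mer substrate. Enzyme was N-GST full-length human FYN A from insect cells, 3 pg, pre-incubated 30 min with compound, 10 points from 10 μM top, 3-fold steps; IC50 from curve.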

Sequence of full-length recombinant human FYN A (P06241 whole entry): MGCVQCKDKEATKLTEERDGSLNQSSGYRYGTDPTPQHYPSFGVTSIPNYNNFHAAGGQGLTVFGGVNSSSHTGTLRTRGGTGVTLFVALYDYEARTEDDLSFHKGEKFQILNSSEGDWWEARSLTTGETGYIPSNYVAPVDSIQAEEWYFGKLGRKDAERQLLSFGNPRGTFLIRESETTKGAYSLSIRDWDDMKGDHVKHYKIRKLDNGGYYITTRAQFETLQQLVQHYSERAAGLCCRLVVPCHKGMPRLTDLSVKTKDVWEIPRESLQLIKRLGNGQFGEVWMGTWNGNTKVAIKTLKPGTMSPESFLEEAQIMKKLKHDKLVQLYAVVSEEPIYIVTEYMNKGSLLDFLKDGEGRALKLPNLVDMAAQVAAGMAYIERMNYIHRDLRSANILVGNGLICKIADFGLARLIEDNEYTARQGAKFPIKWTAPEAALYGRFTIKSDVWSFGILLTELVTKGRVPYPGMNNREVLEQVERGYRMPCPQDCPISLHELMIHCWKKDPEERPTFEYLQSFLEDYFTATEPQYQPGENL

SMILES	IC50 [nM]
COc1ccc(-c2cnc3sc(NCCc4ccc(S(N)(=O)=O)cc4)nn23)cn1 [Compound 267, 4-[2-[[5-(6-methoxy-3-pyridyl)imidazo [2,1-b] [1,3,4]thiadiazol-2-yl]amino]ethyl]benzene-sulfonamide]	2610
CN(C)C(=O)c1cccc(-c2cnc3sc(NCC4CCOCC4)nn23)c1 [Compound 268, N,N-dimethyl-3-[2-(tetrahydro-pyran-4-ylmethylamino)imidazo[2,1-b] [1,3,4]thiadiazol-5-yl]benzamide]	2730
COc1cncc(-c2cnc3sc(NCC(C)C)nn23)c1 [Compound 270, N-isobutyl-5-(5-methoxy-3-pyridyl)imidazo [2,1-b] [1,3,4]thiadiazol-2-amine]	5170
COc1cncc(-c2cnc3sc(NCc4ccc5c(c4)OCO5)nn23)c1 [Compound 271, N-(1,3-benzodioxol-5-ylmethyl)-5-(5-methoxy-3-pyridyl)imidazo [2,1-b] [1,3,4]thiadiazol-2-amine]	448
CC(=O)Nc1cc(-c2ccc(C(=O)N3CCOCC3)cc2)cn2c(-c3cccc(C(C)=O)c3)cnc12 [Compound 275]	2030
CC(=O)Nc1cccc(-c2cnc3ccc(-c4cccc(OC(F)(F)F)c4)nn23)c1 [Compound 276, N-[3-[6-[3-(trifluoromethoxy)phenyl]imidazo [1,2-b]pyridazin-3-yl]phenyl] acetamide]	1500
CC(=O)Nc1cccc(-c2ccc3ncc(-c4cccc(NC(C)=O)c4)n3n2)c1 [Compound 279, N-[3-[3-(3-acetamidophenyl)imidazo[1,2-b]pyridazin-6-yl]phenyl] acetamide]	553
COc1ccc(CNc2nn3c(-c4cccc(C(=O)N(C)C)c4)cnc3s2)cc1 [Compound 280, 3-[2-[(4-methoxyphenyl)methylamino]imidazo[2,1-b] [1,3,4]thiadiazol-5-yl]-N,N-dimethyl-benzamide]	2330
COc1cc(-c2cnc3sc(NCCc4ccncc4)nn23)cc(OC)c1OC [Compound 284, N-[2-(4-pyridyl)ethyl]-5-(3,4,5-trimethoxy-phenyl)imidazo [2,1-b][1,3,4] thiadiazol-2-amine]	1770
CN(C)C(=O)c1cccc(-c2cnc3sc(NCc4ccccc4)nn23)c1 [Compound 286, 3-[2-(benzylamino)imidazo[2,1-d] [1,3,4]thiadiazol-5-yl]-N,N-dimethyl-benzamide]	1510
COc1ccc(-c2cnc3sc(NCc4ccncc4)nn23)cn1 [Compound 287, 5-(6-methoxy-3-pyridyl)-N-(4-pyridylmethyl) imidazo[2,1-b] [1,3,4]thiadiazol-2-amine]	2590
CC(=O)Nc1cccc(-c2ccc3ncc(-c4cccc(CO)c4)n3n2)c1 [Compound 288, N-[3-[3-[3-(hydroxymethyl)phenyl]imidazo [1,2-b]pyridazin-6-yl]phenyl] acetamide]	1640
CN(C)C(=O)c1cccc(-c2cnc3sc(NCc4ccco4)nn23)c1 [Compound 289, 3-[2-(2-furylmethylamino)imidazo[2,1-p] [1,3,4]thiadiazol-5-yl]-N,N-dimethyl-benzamide]	2460
CC(=O)c1cccc(-c2cnc3c(NC=O)cc(-c4ccc(C(=O)N5CCOCC5)cc4)cn23)c1 [Compound 291, N-[3-(3-acetylphenyl)-6-[4-(morpholine-4-carbonyl)phenyl]imidazo[1,2-a]pyridin-8-yl]formamide]	2990
COc1cc(-c2cnc3ccc(-c4cccc(NC(C)=O)c4)nn23)ccc1O [Compound 292, N-[3-[3-(4-hydroxy-3-methoxy-phenyl)imidazo [1,2-b]pyridazin-6-yl]phenyl] acetamide]	102
OCc1ccc(-c2ccc3ncc(-c4cccc(CO)c4)n3n2)cc1 [Compound 295, [4-[3-[3-(hydroxymethyl)phenyl]imidazo [1,2-b]pyridazin-6-yl]phenyl] methanol]	2230
NC(=O)c1ccc(-c2ccc3ncc(-c4cccc(CO)c4)n3n2)cc1 [Compound 296, 4-[3-[3-(hydroxymethyl)phenyl]imidazo [1,2-b]pyridazin-6-yl]benzamide]	1890
COc1ccc(-c2cc(=O)c3cc(O)ccc3o2)cc1OC [Compound 300, 2-(3,4-dimethoxy-phenyl)-6-hydroxy-chromen-4-one]	8950
OCc1cccc(-c2cnc3ccc(-c4cccnc4)nn23)c1 [Compound 301, [3-[6-(3-pyridyl)imidazo [1,2-b]pyridazin-3-yl]phenyl] methanol]	2040
OCc1cccc(-c2cnc3ccc(Cc4ccc(F)cc4)nn23)c1 [Compound 302, [3-[6-[(4-fluorophenyl)methyl]imidazo [1,2-b]pyridazin-3-yl]phenyl] methanol]	3970
COc1cccc(-c2ccc3ncc(-c4cccc(CO)c4)n3n2)c1 [Compound 303, [3-[6-(3-methoxyphenyl)imidazo[1,2-b]pyridazin-3-yl]phenyl] methanol]	2740
CN1CCN(c2ccc(Nc3cc4c(cn3)cc(-c3cccnc3)n4Cc3ccccc3)cc2)CC1 [Compound 305, 1-benzyl-N-[4-(4-methyl-piperazin-1-yl)phenyl]-2-(3-pyridyl)pyrrolo [3,2-c]pyridin-6-amine]	13700
c1ccc(Nc2cc3[nH]c(-c4cn[nH]c4)cc3cn2)nc1 [Compound 306, 2-(1H-pyrazol-4-yl)-N-(2-pyridyl)-1H-pyrrolo[3,2-c]pyridin-6-amine]	7570
CS(=O)(=O)c1ccc(Nc2cc3[nH]c(-c4cn[nH]c4)cc3cn2)cc1 [Compound 307, N-(4-methyl-sulfonylphenyl)-2-(1H-pyrazol-4-yl)-1H-pyrrolo[3,2-c]pyridin-6-amine]	4780
c1ccc(Cn2c(-c3cccnc3)cc3cnc(Nc4ccncn4)cc32)cc1 [Compound 308, 1-benzyl-2-(3-pyridyl)-N-pyrimidin-4-yl-pyrrolo[3,2-c]pyridin-6-amine]	6850
COc1cccc(Nc2cc3[nH]c(-c4cn[nH]c4)cc3cn2)c1 [Compound 309, N-(3-methoxyphenyl)-2-(1H-pyrazol-4-yl)-1H-pyrrolo[3,2-c]pyridin-6-amine]	16600

Continued, values first:

IC50 [nM]	SMILES
1230	NC(=O)c1cccc(-c2cnc3sc(NCc4ccco4)nn23)c1 [Compound 266, 3-[2-(2-furylmethyl-amino)imidazo[2,1-b] [1,3,4]thiadiazol-5-yl]benzamide]
169	COc1cc(-c2cnc3ccc(-c4ccc(NC(C)=O)cc4)nn23)ccc1O [Compound 272, N-[4-[3-(4-hydroxy-3-methoxy-phenyl)imidazo [1,2-b]pyridazin-6-yl]phenyl] acetamide]
1170	CC(=O)Nc1cccc(-c2cnc3ccc(-c4ccc5c(c4)OCO5)nn23)c1 [Compound 273, N-[3-[6-(1,3-benzodioxol-5-yl)imidazo[1,2-b]pyridazin-3-yl]phenyl] acetamide]
1110	CC(=O)Nc1cccc(-c2ccc3ncc(-c4ccc5c(c4)OCO5)n3n2)c1 [Compound 274, N-[3-[3-(1,3-benzodioxol-5-yl)imidazo[1,2-b]pyridazin-6-yl]phenyl] acetamide]
653	COc1ccc(-c2ccc3ncc(-c4cccc(C(C)=O)c4)n3n2)cc1OC [Compound 277, 1-[3-[6-(3,4-dimethoxyphenyl)imidazo[1,2-b]pyridazin-3-yl]phenyl] ethanone]
1080	CC(=O)Nc1cccc(-c2cnc3ccc(-c4ccc(S(C)(=O)=O)cc4)nn23)c1 [Compound 278, N-[3-[6-(4-methylsulfonyl-phenyl)imidazo [1,2-b]pyridazin-3-yl]phenyl] acetamide]
620	CC(=O)Nc1cccc(-c2ccc3ncc(-c4cccc(C(C)=O)c4)n3n2)c1 [Compound 281, N-[3-[3-(3-acetylphenyl)imidazo[1,2-b]pyridazin-6-yl]phenyl] acetamide]
222	CC(=O)Nc1cccc(-c2cnc3ccc(-c4ccc(C(N)=O)cc4)nn23)c1 [Compound 282, 4-[3-(3-acetamidophenyl)imidazo[1,2-b]pyridazin-6-yl]benzamide]
519	CC(=O)Nc1ccc(-c2ccc3ncc(-c4cccc(O)c4)n3n2)cc1 [Compound 283, N-[4-[3-(3-hydroxyphenyl)imidazo[1,2-b]pyridazin-6-yl]phenyl] acetamide]
1100	CC(=O)Nc1cccc(-c2cnc3ccc(-c4ccc(N(C)C)cc4)nn23)c1 [Compound 290, N-[3-[6-(4-dimethylamino-phenyl)imidazo [1,2-a]pyridazin-3-yl]phenyl] acetamide]
830	CS(=O)(=O)Nc1cccc(-c2ccc3ncc(-c4ccc(CO)cc4)n3n2)c1 [Compound 293, N-[3-[3-[4-(hydroxymethyl)phenyl]imidazo [1,2-b]pyridazin-6-yl]phenyl] methane-sulfonamide]
994	CC(=O)c1cccc(-c2cnc3ccc(-c4cccc(O)c4)nn23)c1 [Compound 294, 1-[3-[6-(3-hydroxyphenyl)imidazo[1,2-a]pyridazin-3-yl]phenyl] ethanone]
1480	CN(C)CCNC(=O)c1cccc(-c2cnc3ccc(-c4ccc(CO)cc4)nn23)c1 [Compound 297, N-(2-dimethylamino-ethyl)-3-[6-[4-(hydroxymethyl)phenyl]imidazo [1,2-b]pyridazin-3-yl]benzamide]
311	NC(=O)c1cccc(-c2ccc3ncc(-c4cccc(O)c4)n3n2)c1 [Compound 298, 3-[3-(3-hydroxyphenyl)imidazo[1,2-b]pyridazin-6-yl]benzamide]
223	COc1cc(-c2ccc3ncc(-c4ccc(CO)cc4)n3n2)ccc1O [Compound 299, 4-[3-[4-(hydroxymethyl)phenyl]imidazo [1,2-b]pyridazin-6-yl]-2-methoxy-phenol]
298	CS(=O)(=O)Nc1cccc(-c2ccc3ncc(-c4ccncc4)n3n2)c1 [Compound 304, N-[3-[3-(4-pyridyl)imidazo [1,2-b]pyridazin-6-yl]phenyl] methane-sulfonamide]
